Tests used:
pulmonary fibrosis = experiment: Pulmonary toxicity (pulmonary fibrosis) in mice; settings: for Incidence: Number of mice with pulmonary fibrosis (%) / Incidence: Number of mice with pulmonary fibrosis / Grade: Total score of pulmonary fibrosis/total number of samples / Grade: Total score of pulmonary fibrosis/total number of samples (%): ICR mice, 5 mg/kg i.p. once a day for 10 days; for Incidence: Number of mice with pulmonary fibrosis (%) / Incidence: Number of mice with pulmonary fibrosis: 5 weeks observation; for Incidence: Number of mice with pulmonary fibrosis: mice with fibrosis/total; for Grade: Total score of pulmonary fibrosis/total number of samples / Grade: Total score of pulmonary fibrosis/total number of samples (%): points 0, 1, 2, 4, 6; for Ratio (by comparison with "Bleomycin Complex"): versus Bleomycin Complex
[1] = tested on: Mycobacterium smegmatis ATCC 607; experiment: Antimicrobial activity against Mycobacterium smegmatis ATCC 607 (agar plate-cylinder); assay type: cell-based; settings: standard bleomycin A2 (copper-free) assumed 1,000 mcg potency/mg
Experimental: (§1) 2. ANT[…] MYC[…] ATCC 607 AND BACILLUS SUBTILIS
(§2) The antimicrobial activity was tested against the captioned test organisms by the method of agar plate-cylinder. The activity was recorded on the assumption that the activity of standard sample of bleomycin A2 (copper-free form) is 1,000 mcg poteney/mg.

Bacillus subtilis = experiment: Antimicrobial activity against Bacillus subtilis (agar plate-cylinder); assay type: cell-based; settings: standard bleomycin A2 (copper-free) assumed 1,000 mcg potency/mg
Experimental: as §1, §2

Structure (SMILES)	Incidence: Number of mice with pulmonary fibrosis (%) (pulmonary fibrosis)	Incidence: Number of mice with pulmonary fibrosis (pulmonary fibrosis)	Grade: Total score of pulmonary fibrosis/total number of samples (pulmonary fibrosis)	Grade: Total score of pulmonary fibrosis/total number of samples (%) (pulmonary fibrosis)	Ratio (by comparison with "Bleomycin Complex") (pulmonary fibrosis)	Antimicrobial potency of Cu-free compound against Mycobacterium smegmatis ATCC 607 [1] [mcg potency/mg]	Antimicrobial potency of Cu-free compound against Bacillus subtilis (Bacillus subtilis) [mcg potency/mg]
Cc1c(N)nc(C(CC(N)=O)NCC(N)C(=O)NCCCNC(C)c2ccccc2)nc1C(=O)NC(C(=O)NC(C)C(O)C(C)C(=O)NC(C(=O)NCCc1nc(-c2nc(C(=O)NCCCN(C)CCCNCCc3ccc(Cl)cc3)cs2)cs1)C(C)O)C(OC1OC(CO)C(O)C(O)C1OC1OC(CO)C(O)C(OC(N)=O)C1O)c1cnc[nH]1 [Compound 43, 3-{N--methyl-N--[3-(2-(p-chlorophenyl)ethyl)aminopropyl]amino}-propylamino-(amido)N--[3-((S)-1'-phenylethyl)aminopropyl]-BLM]	0	0/1	0/3	0	0	15593	4267
CCCCN(CCCC)CCCNC(=O)C(N)CNC(CC(N)=O)c1nc(N)c(C)c(C(=O)NC(C(=O)NC(C)C(O)C(C)C(=O)NC(C(=O)NCCc2nc(-c3nc(C(=O)NCCC[N+](C)(C)CCCN(Cc4ccccc4)Cc4ccccc4)cs3)cs2)C(C)O)C(OC2OC(CO)C(O)C(O)C2OC2OC(CO)C(O)C(OC(N)=O)C2O)c2cnc[nH]2)n1 (stereo not drawn) [Compound 54]	0	0/9	0/27	0	0	32633	2663
Cc1c(N)nc(C(CC(N)=O)NCC(N)C(=O)NC(C)C)nc1C(=O)NC(C(=O)NC(C)C(O)C(C)C(=O)NC(C(=O)NCCc1nc(-c2nc(C(=O)NCCCNC(C)c3ccccc3)cs2)cs1)C(C)O)C(OC1OC(CO)C(O)C(O)C1OC1OC(CO)C(O)C(OC(N)=O)C1O)c1cnc[nH]1 [Compound 21, 3-((S)-1'-phenylethyl)aminopropylamino-(amido)N--[isopropyl]-BLM]	38	3/8	5/24	21	0.27	11998	962
CCCCNCCCN(C)CCCNC(=O)c1csc(-c2csc(CCNC(=O)C(NC(=O)C(C)C(O)C(C)NC(=O)C(NC(=O)c3nc(C(CC(N)=O)NCC(N)C(=O)NCCCN(C)CCCNCCCC)nc(N)c3C)C(OC3OC(CO)C(O)C(O)C3OC3OC(CO)C(O)C(OC(N)=O)C3O)c3cnc[nH]3)C(C)O)n2)n1 (stereo not drawn) [Compound 38, 3-[N--methyl-N--(3-n-butylaminopropyl)amino]propylamino-(amido)N--{3-[N--methyl-N--(3-n-butylaminopropyl)amino]-propyl}-BLM]	71	5/7	7/21	33	0.32	5100	6600
CCCCN(CCCC)CCCNC(=O)C(N)CNC(CC(N)=O)c1nc(N)c(C)c(C(=O)NC(C(=O)NC(C)C(O)C(C)C(=O)NC(C(=O)NCCc2nc(-c3nc(C(=O)NCCCN(C)CCCNCCc4ccc(Cl)cc4)cs3)cs2)C(C)O)C(OC2OC(CO)C(O)C(O)C2OC2OC(CO)C(O)C(OC(N)=O)C2O)c2cnc[nH]2)n1 (stereo not drawn) [Compound 46, 3-{N--methyl-N--[3-(2-(p-chlorophenyl)ethyl)aminopropyl]amino}-propylamino-(amido)N--[3-(di-n-butylamino)propyl]-BLM]						31690	3690
Cc1c(N)nc(C(CC(N)=O)NCC(N)C(=O)NC(C)C)nc1C(=O)NC(C(=O)NC(C)C(O)C(C)C(=O)NC(C(=O)NCCc1nc(-c2nc(C(=O)NCCc3c[nH]cn3)cs2)cs1)C(C)O)C(OC1OC(CO)C(O)C(O)C1OC1OC(CO)C(O)C(OC(N)=O)C1O)c1cnc[nH]1 (stereo not drawn) [Compound 3, 2-(4'-Imidazolyl)ethylamino-(amido)N--[isopropyl]-BLM]						2778	593
CCCCCCCCCCCCCCCCCCNC(=O)C(N)CNC(CC(N)=O)c1nc(N)c(C)c(C(=O)NC(C(=O)NC(C)C(O)C(C)C(=O)NC(C(=O)NCCc2nc(-c3nc(C(=O)NCCCNC(C)c4ccccc4)cs3)cs2)C(C)O)C(OC2OC(CO)C(O)C(O)C2OC2OC(CO)C(O)C(OC(N)=O)C2O)c2cnc[nH]2)n1 [Compound 25, 3-((S)-1'-phenylethylamino)propylamino-(amido)N--[stearyl]-BLM]						210	0
CCCCCCCCNC(=O)C(N)CNC(CC(N)=O)c1nc(N)c(C)c(C(=O)NC(C(=O)NC(C)C(O)C(C)C(=O)NC(C(=O)NCCc2nc(-c3nc(C(=O)NCCCCNC(=N)N)cs3)cs2)C(C)O)C(OC2OC(CO)C(O)C(O)C2OC2OC(CO)C(O)C(OC(N)=O)C2O)c2cnc[nH]2)n1 (stereo not drawn) [Compound 10, 4-Guanidinobutylamino-(amido)N--[octyl]-BLM]						33700	1500
CCCCCCCCNC(=O)C(N)CNC(CC(N)=O)c1nc(N)c(C)c(C(=O)NC(C(=O)NC(C)C(O)C(C)C(=O)NC(C(=O)NCCc2nc(-c3nc(C(=O)NCCCNC(C)c4ccccc4)cs3)cs2)C(C)O)C(OC2OC(CO)C(O)C(O)C2OC2OC(CO)C(O)C(OC(N)=O)C2O)c2cnc[nH]2)n1 [Compound 27, 3-((S)-1'-phenylethylamino)propylamino-(amido)N--[octyl]-BLM]						45100	886
Cc1c(N)nc(C(CC(N)=O)NCC(N)C(=O)NC(c2ccccc2)c2ccccc2)nc1C(=O)NC(C(=O)NC(C)C(O)C(C)C(=O)NC(C(=O)NCCc1nc(-c2nc(C(=O)NCCCCNC(=N)N)cs2)cs1)C(C)O)C(OC1OC(CO)C(O)C(O)C1OC1OC(CO)C(O)C(OC(N)=O)C1O)c1cnc[nH]1 (stereo not drawn) [Compound 15, 4-Guanidinobutylamino-(amido)N--[diphenylmethyl]-BLM]						42320	980
Cc1c(N)nc(C(CC(N)=O)NCC(N)C(=O)NCCCNC(C)c2ccccc2)nc1C(=O)NC(C(=O)NC(C)C(O)C(C)C(=O)NC(C(=O)NCCc1nc(-c2nc(C(=O)NCCCN(C)CCCNCc3ccc(C#N)cc3)cs2)cs1)C(C)O)C(OC1OC(CO)C(O)C(O)C1OC1OC(CO)C(O)C(OC(N)=O)C1O)c1cnc[nH]1 [Compound 63, 3-{N--methyl-N--[3-(p-cyanobenzylamino)propyl]amino]propylamino-(amido)N--[(3-((S)-1'-phenylethylamino)propyl]-BLM]						21877	11056
Cc1c(N)nc(C(CC(N)=O)NCC(N)C(=O)NC(C)C)nc1C(=O)NC(C(=O)NC(C)C(O)C(C)C(=O)NC(C(=O)NCCc1nc(-c2nc(C(=O)NCCCCNC(=N)N)cs2)cs1)C(C)O)C(OC1OC(CO)C(O)C(O)C1OC1OC(CO)C(O)C(OC(N)=O)C1O)c1cnc[nH]1 (stereo not drawn) [Compound 7, 4-Guanidinobutylamino-(amido)N--[isopropyl]-BLM]						6425	1950
CCCCCCCCCCCCNC(=O)C(N)CNC(CC(N)=O)c1nc(N)c(C)c(C(=O)NC(C(=O)NC(C)C(O)C(C)C(=O)NC(C(=O)NCCc2nc(-c3nc(C(=O)NCCCNC(C)c4ccccc4)cs3)cs2)C(C)O)C(OC2OC(CO)C(O)C(O)C2OC2OC(CO)C(O)C(OC(N)=O)C2O)c2cnc[nH]2)n1 [Compound 26, 3-((S)-1'-phenylethylamino)propylamino-(amido)N--[lauryl]-BLM]						3920	384
CCCCCCCCCCCCNC(=O)C(N)CNC(CC(N)=O)c1nc(N)c(C)c(C(=O)NC(C(=O)NC(C)C(O)C(C)C(=O)NC(C(=O)NCCc2nc(-c3nc(C(=O)NCCCCNC(=N)N)cs3)cs2)C(C)O)C(OC2OC(CO)C(O)C(O)C2OC2OC(CO)C(O)C(OC(N)=O)C2O)c2cnc[nH]2)n1 (stereo not drawn) [Compound 13, 4-Guanidinobutylamino-(amido)N--[lauryl]-BLM]						7650	660

— patent US4472304A, “(Amido)N-substituted bleomycins, salts thereof and process for preparation thereof” (Nippon Kayaku Kabushiki Kaisha, priority 1981, dated 1984)
